Measurements: patent US20250101063A1, “POLYPEPTIDE COMPOUND AND USE THEREOF IN TREATMENT OF ENTERITIS” (Sichuan Gooddoctor Panxi Pharmaceutical Co., Ltd., priority 2022, published 2025)
Where no end group is shown, it is not given here. [ ]: non-standard residue; d: D form.

Legend:
[1] = test system: zebrafish model of intestinal mucosal injury; experiment: Efficacy in relieving colitis: intestinal lumen area in TNBS-treated zebrafish; type: in vivo; design: key to Activity in relieving intestinal lumen dilatation: * p < 0.05; ** p < 0.01; *** p < 0.001; “−“ indicates absence of activity; “+” indicates some relief of intestinal lumen dilatation; “#” indicates that all the zebrafishes died in the experiment; “&” indicates that 13 zebrafishes died in the experiment; settings: for Intestinal lumen area (pixels, mean ± SE): 2 days after TNBS, n = 10; for Activity in relieving intestinal lumen dilatation: 1000 μg/mL, significance vs model control group of the same batch
Description: Experimental animals: Wild-type AB strain zebrafishes, bred by natural pair mating. Zebrafishes aged 3 days post fertilization (3 dpf). Zebrafishes were kept in fish farming water at 28° C. (water quality: 200 mg of instant sea salt in each 1L of reverse osmosis water, with the conductivity of 450-550 μS/cm; pH of 6.5-8.5; and hardness of 50-100 mg/L CaCO3), the experimental animal use license number is: SYXK (Zhe) 2012-0171, and the breeding management met the requirements of the international AAALAC certification (certification number: 001458).
(1) Grouping: Polypeptide group: prepared into a stock solution of 20.0 mg/mL with ultrapure water and stored at −20° C.
Positive control group: prednisone, as white powder, with batch number C10016501, Shanghai Macklin Biochemical Technology Co., Ltd., stored at 4° C.; prepared into a 15.0 mg/mL stock solution with DMSO, and stored in aliquots at −20° C.
Normal control group and model control group.
(2) Experimental method: 3 dpf wild-type AB strain zebrafishes were randomly selected and placed in a 6-well plate, with 30 zebrafishes in each well (experimental group). Except for the normal control group, all other experimental groups were given TNBS in water to establish the zebrafish model of intestinal mucosal injury. After 2 days of treatment at 28° C., TNBS was removed, and polypeptide compound in water (at concentrations shown in Table 4) was given respectively, and for the positive control, prednisone was 15.0 μg/mL. A normal control group (healthy group) and a model control group (intestinal mucosal injury group) were set up at the same time. The capacity of each well (experimental group) was 3 mL. After 2 days of treatment at 28° C., 10 zebrafishes were randomly selected from each experimental group and photographed under a dissecting microscope. NIS-Elements D 3.20 advanced image processing software was used to analyze and collect data, and the intestinal lumen area of the zebrafish was analyzed. The statistical analysis results of this indicator were used to evaluate the efficacy of the samples in relieving colitis. The statistics results were expressed as mean±SE. SPSS26.0 software was used for statistical analysis, and p<0.05 indicates statistically significant difference.
The concentration gradient of the test substances set in this experimental system was 250 μg/mL, 500 μg/mL, and 1000 μg/mL. […] When the concentration of the test substance was further increased for intervention, the death phenomenon of zebrafishes was found in the group; therefore, in the subsequent rounds of activity evaluation, each test polypeptide compound was uniformly administered at 1000 μg/mL for intervention.

[2] = test system: TNBS-induced model of acute inflammatory bowel disease (UC) in SD rat; experiment: TNBS-induced model of acute inflammatory bowel disease (UC) in SD rat; type: in vivo
Excerpt: In this experiment, a rat model of ulcerative colitis was established by administering trinitrobenzene sulfonic acid (TNBS) to laboratory animal male SD rats for a single enema intervention. Acute colitis in rats induced by trinitrobenzene sulfonic acid (TNBS) is an immune response induced by cytokines secreted by Th1 type cells. […] This model is simple to establish and has good reproducibility. It is an experimental animal model widely used in evaluating drugs for the treatment of inflammatory bowel disease. […] During the experimental treatment period (D1-D14), the body weight and general clinical observation indicators (including but not limited to food intake, water intake, activity level and defecation, etc.) of the animals in each experimental group were dynamically collected. At the same time, based on the relevant scoring standards for the disease activity index of ulcerative colitis, the reactivity such as the weight loss degree, stool morphology and trait, and bloody stool of the animals in each experimental group after TNBS induction were scored, and the disease activity index (DAI) of ulcerative colitis was calculated, once a day for 14 consecutive days. At the end point of the experiment, colon tissues of animals in each experimental group were collected, and the length and weight of the colon were measured and then the non-autopsy images were collected. Then the colon was cut open along the intestinal wall longitudinally and autopsy images were collected. Based on the “Criteria for Scoring Gross Morphological Manifestations of the Colon”, the gross damage with respect to colon adhesions, colon ulcers and inflammation of animals in each experimental group was observed and scored. Ulcer images were collected under a stereomicroscope and the area of colon ulcer foci was calculated, followed by routine fixation.

[3] = D 0-D 14, compound 12: 0.8 mg/kg, mesalazine: 30.0 mg/kg, enema once a day 14 days, mean ± SD
[4] = D 14, compound 12: 0.8 mg/kg, mesalazine: 30.0 mg/kg, enema once a day 14 days, mean ± SD
[5] = experimental endpoint, compound 12: 0.8 mg/kg, mesalazine: 30.0 mg/kg, enema once a day 14 days, mean ± SD
[6] = set treatment regimen, enema once a day 14 days, vs model control group

Arg-Lys-Val-Ala (RKVA; printed: Arg-Lys-Val-Ala) [Compound 15]
Intestinal lumen area (pixels, mean ± SE) ([1]; 250 μg/mL in water): 40719 ± 4647 pixels | Intestinal lumen area (pixels, mean ± SE) ([1]; 500 μg/mL in water): 31319 ± 5274 pixels | Intestinal lumen area (pixels, mean ± SE) ([1]; 1000 μg/mL in water): 30268 ± 2437 pixels | Activity in relieving intestinal lumen dilatation [1]: * (* p < 0.05) | Intestinal lumen area compared with the model control group (in words) ([1]; 250, 500, 1000 μg/mL, Table 4): significant statistical differences compared with the model control group

KAPVPQAKPRKVAAQ [Compound 20]
Activity in relieving intestinal lumen dilatation [1]: &

KEPVPQA[dK]PRKVAAQ [Compound 68]
Activity in relieving intestinal lumen dilatation [1]: ** (** p < 0.01)

EPVPQAKP [Compound 58]
Activity in relieving intestinal lumen dilatation [1]: +

Nc1ccc(O)c(C(=O)O)c1 [Mesalazine, mesalazine, reference compound]
Body weight, Grouping day (D 0, g) ([2]; D 0, before treatment, compound 12: 0.8 mg/kg, mesalazine: 30.0 mg/kg, enema once a day, mean ± SD): 276.64 ± 7.47 g | DAI score AUC(0-14 d) (D 0-D 14) [2, 3]: 58.75 ± 2.93 | Weight change range (D 0-D 14, %) [2, 3]: −4.29 ± 7.79% | DAI score, Experimental day 1 (D 1, point) ([2]; D 1, compound 12: 0.8 mg/kg, mesalazine: 30.0 mg/kg, enema once a day, mean ± SD): 4.2 ± 0.4 point | DAI score, Experimental day 3 (D 3, point) ([2]; D 3, compound 12: 0.8 mg/kg, mesalazine: 30.0 mg/kg, enema once a day, mean ± SD): 6.2 ± 0.6 point | Body weight, Experimental day 5 (D 5, g) ([2]; D 5, compound 12: 0.8 mg/kg, mesalazine: 30.0 mg/kg, enema once a day, mean ± SD): 234.86 ± 8.07 g | Body weight, Experimental endpoint (D 14, g) [2, 4]: 264.43 ± 17.65 g | DAI score, Experimental endpoint (D 14, point) [2, 4]: 2.1 ± 1.6 point | Colon length (cm) [2, 5]: 14.76 ± 2.06 cm | Colon ulcer and inflammation score (point) [2, 5]: 4.30 ± 0.95 point | Colon weight (g) [2, 5]: 3.42 ± 1.15^ g | Colonic adhesion score (point) [2, 5]: 2.60 ± 0.52 point | Effect on disease progression of ulcerative colitis / DAI scores (in words) [2, 6]: no significant effect on the disease symptoms of ulcerative colitis | Effect on weight gain inhibition / weight loss response of model animals (in words) [2, 6]: did not show a significant weight improvement effect

Pro-Val-Pro-Glu-Ala (PVPEA; printed: Pro-Val-Pro-Glu-Ala) [Compound 40]
Activity in relieving intestinal lumen dilatation [1]: +

EPVPQA[dK] [Compound 84]
Activity in relieving intestinal lumen dilatation [1]: +

Lys-Pro-Arg-Lys (KPRK; printed: Lys-Pro-Arg-Lys) [Compound 10]
Activity in relieving intestinal lumen dilatation [1]: ** (** p < 0.01)
